# Test results published in patent US20260297042A1, “BIARYLAMIDE DERIVATIVES AND THEIR USE AS PKMYT1 INHIBITORS” (CANCER RESEARCH TECHNOLOGY LIMITED, priority 2023, published 2026).
# pIC50: −log10 of the molar value.
# Tests used:
# OVCAR 3 cells = test: Cancer cell line proliferation assay, ATP-based cell viability (Cell Titre Glow), OVCAR 3 (CCNE1-amplified); settings: KYSE30 (normal CCNE1) GI50 vs. OVCAR 3 (CCNE1-amplified) GI50
# Protocol: (§1) Cancer cell lines with either normal (KYSE-30) or amplified CCNE1 expression (OVCAR 3 —ovarian cancer) were evaluated for their sensitivity to PKMYT1 inhibitors using Cell Titre Glow assay (Promega G7573) as endpoint to assess cell proliferation. The luminescence signal was read on a PHERAStar FS microplate reader (BMG Labtech). Data analysis was performed using Microsoft Excel® and Gl50 (concentration that achieves 50% cell growth proliferation inhibition) estimates generated with GraphPad Prism v9.
# WEE1 = biological target: T1, WEE1 (Homo sapiens, UniProt P30291); test: Selectivity versus WEE1 assay (ADP-Glo enzymatic assay); format: biochemical; settings: for pIC50: ADP-Glo; for PKMYT1 vs. WEE1 selectivity: fold difference in selectivity for PKMYT1 over WEE1
# T1 construct: purchased Thermo Fisher PR7373A
# Outline: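 Compounds were pre-dispensed, enzyme (15 nM final) was added in pH 7.5 HEPES buffer, and ATP ([…]) then started a 60 min incubation at 26° C. Afterwards ADP-Glo reagents were added in turn and luminescence was measured to derive IC50 values.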
# Human PKMYT1 = biological target: T2, Human PKMYT1 (Homo sapiens, UniProt Q99640); test: PKMYT1 biochemical ADP-Glo enzymatic assay; settings: ADP-Glo
# T2 construct: Human PKMYT1 75-362 was cloned as a TEV cleavable 6xHis fusion; 6xHis (TEV cleavable) (cleaved yes); made in house; host or cells: bacterial cells
# T2 sequence (Q99640 75-362): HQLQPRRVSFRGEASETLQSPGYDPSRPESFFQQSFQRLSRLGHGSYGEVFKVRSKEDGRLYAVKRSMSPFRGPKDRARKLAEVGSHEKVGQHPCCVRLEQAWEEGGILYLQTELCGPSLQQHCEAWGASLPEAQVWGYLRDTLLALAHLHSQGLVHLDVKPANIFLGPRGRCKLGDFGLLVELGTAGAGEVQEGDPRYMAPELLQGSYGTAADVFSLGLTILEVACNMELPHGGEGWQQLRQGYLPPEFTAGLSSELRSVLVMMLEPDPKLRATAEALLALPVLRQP
# Outline: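 Compounds were titrated over 10 points (3-fold steps), then 15 nM purified PKMYT1 kinase domain (aa 75-362) and 500 µM ATP were added in pH 7.5 HEPES buffer. After 60 min at 26 °C, remaining ATP was depleted and ADP converted to luminescence for IC50 fitting.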
# KYSE-30 cells = test: Cancer cell line proliferation assay, ATP-based cell viability (Cell Titre Glow), KYSE-30 (normal CCNE1); settings: Homo sapiens, KYSE-30 cells (normal CCNE1), concentration that achieves 50% cell growth proliferation inhibition, read-out: KYSE30 Gl50
# Protocol: as §1
# [1] = 15 nM WEE1, 60 minutes at 26° C., banded
# [2] = banded, ">N" = at least in this band but could be higher
# [3] = 15 nM PKMYT1 kinase domain, 500 µM ATP, 60 minutes at 26° C., banded
# [4] = PKMYT1 kinase domain 15 nM, banded values
# T1 sequence (P30291 whole entry): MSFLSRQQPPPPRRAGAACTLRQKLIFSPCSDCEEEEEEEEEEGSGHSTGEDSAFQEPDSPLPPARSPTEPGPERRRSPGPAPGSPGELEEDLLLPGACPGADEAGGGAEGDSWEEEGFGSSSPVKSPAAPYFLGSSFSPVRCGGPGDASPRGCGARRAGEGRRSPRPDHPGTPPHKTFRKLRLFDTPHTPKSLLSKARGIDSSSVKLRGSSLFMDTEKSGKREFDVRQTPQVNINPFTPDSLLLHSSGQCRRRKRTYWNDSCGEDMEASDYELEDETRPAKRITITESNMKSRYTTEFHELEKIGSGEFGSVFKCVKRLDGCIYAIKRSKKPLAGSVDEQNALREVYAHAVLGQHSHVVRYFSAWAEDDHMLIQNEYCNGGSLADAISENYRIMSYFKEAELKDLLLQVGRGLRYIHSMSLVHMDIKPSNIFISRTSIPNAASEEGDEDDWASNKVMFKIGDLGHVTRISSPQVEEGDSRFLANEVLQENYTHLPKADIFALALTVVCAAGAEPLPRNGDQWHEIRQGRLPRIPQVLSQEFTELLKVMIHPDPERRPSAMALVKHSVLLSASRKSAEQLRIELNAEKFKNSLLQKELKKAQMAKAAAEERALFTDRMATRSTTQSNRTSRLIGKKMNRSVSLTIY
SMILES,Selectivity ratio KYSE30 Gl50 vs. OVCAR3 Gl50 (OVCAR 3 cells),pIC50 (WEE1; [1]),PKMYT1 vs. WEE1 selectivity (WEE1; [2]),pIC50 (Human PKMYT1; [3]),GI50 (KYSE-30 cells),"pIC50 (WEE1; WEE1 15 nM, banded values)",PKMYT1 vs. WEE1 selectivity (WEE1; banded),pIC50 (Human PKMYT1; [4])
"Cc1cn(-c2cccc(C(F)(F)F)c2)nc1Nc1ncc(C(=O)Nc2c(C)ccc(O)c2C)s1 [BAA-370, N-(3-hydroxy-2,6-dimethylphenyl)-2-((4-methyl-1-(3-(trifluoromethyl)phenyl)-1H-pyrazol-3-yl)amino)thiazole-5-carboxamide]",X (3-20 fold),< 4.96,X (100-<1000 fold),> 7.30,0.5 to 5 µM,–,–,–
"Cc1cn(CC(=O)N2CCCC2C)nc1Nc1ncc(C(=O)Nc2c(C)ccc(O)c2C)s1 (centres unmarked) [BAA-492, N-(3-hydroxy-2,6-dimethylphenyl)-2-((4-methyl-1-(2-(2-methylpyrrolidin-1-yl)-2-oxoethyl)-1H-pyrazol-3-yl)amino)thiazole-5-carboxamide]",Y (>20 fold),–,–,–,> 5 µM,4.96 to 6.00,X (100-<1000 fold),> 7.30
"Cc1ccc(O)c(C)c1NC(=O)c1cnc(Nc2nn(CC(F)(F)F)c3ccccc23)s1 [BAA-457, N-(3-hydroxy-2,6-dimethylphenyl)-2-((1-(2,2,2-trifluoroethyl)-1H-indazol-3-yl)amino)thiazole-5-carboxamide]",Y (>20 fold),–,–,–,0.5 to 5 µM,4.96 to 6.00,X (100-<1000 fold),> 7.30
"Cc1cn(C)nc1Nc1ncc(C(=O)Nc2c(C)ccc(O)c2C)s1 [BAA-123, 2-[(1,4-dimethylpyrazol-3-yl)amino]-N-(3-hydroxy-2,6-dimethyl-phenyl)thiazole-5-carboxamide]",Y (>20 fold),4.96 to 6.00,X (100-<1000 fold),> 7.30,> 5 µM,–,–,–
"Cc1cn(-c2cccnc2)nc1Nc1ncc(C(=O)Nc2c(C)ccc(O)c2C)s1 [BAA-371, N-(3-hydroxy-2,6-dimethylphenyl)-2-((4-methyl-1-(pyridin-3-yl)-1H-pyrazol-3-yl)amino)thiazole-5-carboxamide]",Y (>20 fold),4.96 to 6.00,X (100-<1000 fold),> 7.30,> 5 µM,–,–,–
"Cc1cn(-c2ccc(C(F)(F)F)nc2)nc1Nc1ncc(C(=O)Nc2c(C)ccc(O)c2C)s1 [BAA-367, N-(3-hydroxy-2,6-dimethylphenyl)-2-((4-methyl-1-(6-(trifluoromethyl)pyridin-3-yl)-1H-pyrazol-3-yl)amino)thiazole-5-carboxamide]",Y (>20 fold),< 4.96,X (100-<1000 fold),6.00 to 7.30,> 5 µM,–,–,–
"Cc1cn(-c2cccc(F)c2)nc1Nc1ncc(C(=O)Nc2c(C)ccc(O)c2C)s1 [BAA-368, 2-((1-(3-fluorophenyl)-4-methyl-1H-pyrazol-3-yl)amino)-N-(3-hydroxy-2,6-dimethylphenyl)thiazole-5-carboxamide]",Y (>20 fold),< 4.96,Y (1000-5000 fold),> 7.30,> 5 µM,–,–,–
"CCN(C)C(=O)Cn1cc(C)c(Nc2ncc(C(=O)Nc3c(C)ccc(O)c3C)s2)n1 [BAA-489, 2-((1-(2-(ethyl(methyl)amino)-2-oxoethyl)-4-methyl-1H-pyrazol-3-yl)amino)-N-(3-hydroxy-2,6-dimethylphenyl)thiazole-5-carboxamide]",Y (>20 fold),–,–,–,> 5 µM,4.96 to 6.00,X (100-<1000 fold),> 7.30
"Cc1ccc(O)c(C)c1NC(=O)c1cnc(Nc2cccc(-c3cnn(C(F)F)c3)n2)s1 [BAA-399, 2-((6-(1-(difluoromethyl)-1H-pyrazol-4-yl)pyridin-2-yl)amino)-N-(3-hydroxy-2,6-dimethylphenyl)thiazole-5-carboxamide]",Y (>20 fold),–,–,–,0.5 to 5 µM,4.96 to 6.00,X (100-<1000 fold),> 7.30
"Cc1ccc(NS(=O)(=O)C(C)(C)C)nc1Nc1ncc(C(=O)Nc2c(C)ccc(O)c2C)s1.Cl [BAA-335, 2-((6-((1,1-dimethylethyl)sulfonamido)-3-methylpyridin-2-yl)amino)-N-(3-hydroxy-2,6-dimethylphenyl)thiazole-5-carboxamide hydrochloride]",Y (>20 fold),< 4.96,Y (1000-5000 fold),> 7.30,0.5 to 5 µM,–,–,–
"Cc1cn(-c2ncc(C(=O)Nc3c(C)ccc(O)c3C)s2)nc1Nc1ncc(C(=O)Nc2c(C)ccc(O)c2C)s1 [BAA-393, N-(3-hydroxy-2,6-dimethylphenyl)-2-((1-(5-((3-hydroxy-2,6-dimethylphenyl)carbamoyl)thiazol-2-yl)-4-methyl-1H-pyrazol-3-yl)amino)thiazole-5-carboxamide]",X (3-20 fold),–,–,–,0.5 to 5 µM,< 4.96,X (100-<1000 fold),6.00 to 7.30
"CCN(CC)C(=O)C(C)n1ccc(Nc2ncc(C(=O)Nc3c(C)ccc(O)c3C)s2)n1 (centres unmarked) [BAA-512, 2-((1-(1-(diethylamino)-1-oxopropan-2-yl)-1H-pyrazol-3-yl)amino)-N-(3-hydroxy-2,6-dimethylphenyl)thiazole-5-carboxamide]",Y (>20 fold),–,–,–,> 5 µM,< 4.96,Y (1000-5000 fold),> 7.30
"Cc1ccc(O)c(C)c1NC(=O)c1cnc(Nc2cccc(-c3ccc(F)cc3)n2)s1 [BAA-306, 2-((6-(4-fluorophenyl)pyridin-2-yl)amino)-N-(3-hydroxy-2,6-dimethylphenyl)thiazole-5-carboxamide]",X (3-20 fold),< 4.96,X (100-<1000 fold),6.00 to 7.30,0.5 to 5 µM,–,–,–
"Cc1ccc(NC(=O)NC(C)(C)C)nc1Nc1ncc(C(=O)Nc2c(C)ccc(O)c2C)s1.Cl [BAA-336, 2-((6-(3-(tert-butyl)ureido)-3-methylpyridin-2-yl)amino)-N-(3-hydroxy-2,6-dimethylphenyl)thiazole-5-carboxamide hydrochloride]",Y (>20 fold),< 4.96,X (100-<1000 fold),6.00 to 7.30,> 5 µM,–,–,–
"Cc1cn(-c2ccc(Cl)cn2)nc1Nc1ncc(C(=O)Nc2c(C)ccc(O)c2C)s1 [BAA-376, 2-((1-(5-Chloropyridin-2-yl)-4-methyl-1H-pyrazol-3-yl)amino)-N-(3-hydroxy-2,6-dimethylphenyl)thiazole-5-carboxamide]",Y (>20 fold),< 4.96,X (100-<1000 fold),6.00 to 7.30,0.5 to 5 µM,–,–,–
"Cc1ccc(O)c(C)c1NC(=O)c1cnc(Nc2ccn(C(C)C(=O)N3CCCC3)n2)s1 (centres unmarked) [BAA-506, N-(3-Hydroxy-2.6-dimethylphenyl)-2-((1-(1-oxo-1-(pyrrolidin-1-yl)propan-2-yl)-1H-pyrazol-3-yl)amino)thiazole-5-carboxamide]",Y (>20 fold),–,–,–,> 5 µM,4.96 to 6.00,X (100-<1000 fold),> 7.30
